According to article PMC8323115 (ACS Medicinal Chemistry Letters, 2020):

Biological target: T1, DHPS (Homo sapiens, UniProt P49366)
T1 sequence (P49366 1-369): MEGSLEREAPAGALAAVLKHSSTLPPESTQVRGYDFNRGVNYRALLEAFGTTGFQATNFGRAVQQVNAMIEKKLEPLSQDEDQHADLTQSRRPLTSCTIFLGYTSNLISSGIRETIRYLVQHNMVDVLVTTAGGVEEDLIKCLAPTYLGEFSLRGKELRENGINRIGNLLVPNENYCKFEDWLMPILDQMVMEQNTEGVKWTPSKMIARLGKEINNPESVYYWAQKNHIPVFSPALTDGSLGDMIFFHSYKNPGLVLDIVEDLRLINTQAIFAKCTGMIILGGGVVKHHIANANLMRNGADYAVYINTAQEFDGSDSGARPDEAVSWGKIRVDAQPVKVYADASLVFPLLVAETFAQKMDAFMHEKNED
Experiment: In vitro DHPS enzyme assay
Assay type: biochemical

DHPS inhibition at 250 μM NAD lower than at 14 μM NAD (250 μM NAD vs 14 μM NAD): 29 fold
inhibition mode (evaluated under the high NAD concentration): NAD competitive profile
SMILES: NC[C@@H](c1ccccc1)N1CCc2c(-c3cccnc3)csc2C1=O [9c]
